Experimental data from PMC10906241, “Molecular Insights into O-Linked Sialoglycans Recognition by the Siglec-Like SLBR-N (SLBRUB10712) of Streptococcus gordonii” (ACS Central Science, 2024).

Molecular target: SLBR-N (SLBRUB10712) (Streptococcus mitis, UniProt A0A6I8WFK9)
Assay: ITC
Conditions: single-site binding model

SLBR-N (SLBRUB10712), sequence (A0A6I8WFK9 entry or part of it): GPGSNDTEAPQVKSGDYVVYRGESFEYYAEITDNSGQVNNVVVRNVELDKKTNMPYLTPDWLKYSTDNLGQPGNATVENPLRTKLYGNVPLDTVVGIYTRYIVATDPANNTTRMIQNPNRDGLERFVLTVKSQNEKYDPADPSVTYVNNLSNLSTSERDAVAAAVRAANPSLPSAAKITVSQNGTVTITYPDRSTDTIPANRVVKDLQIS

For `CC(=O)N[C@H]1[C@H](OC[C@H]2O[C@H](O[C@H](C)[C@H](N)C(=O)O)[C@H](NC(C)=O)[C@@H](O[C@@H]3O[C@H](CO)[C@H](O)[C@H](O[C@]4(C(=O)O)C[C@H](O)[C@@H](NC(C)=O)[C@H]([C@H](O)[C@H](O)CO)O4)[C@H]3O)[C@H]2O)O[C@H](CO)[C@@H](O[C@@H]2O[C@H](CO)[C@H](O)[C@H](O[C@]3(C(=O)O)C[C@H](O)[C@@H](NC(C)=O)[C@H]([C@H](O)[C@H](O)CO)O3)[C@H]2O)[C@@H]1O` [compound 5, ligand 5], the Kd was 15.1 ± 1.13 µM.
